# From USRE37793E1, “Method and composition for inhibiting bacteria” (Winthrop University Hospital, priority 1995, dated 2002)
# Key:
# [1] = test system: Klebsiella pneumoniae; type: cell-based
# [2] = test system: bacteria; type: cell-based
# [3] = test system: gut flora; assay: Effect on gut flora and fecal production; set-up: species or system rats; details: rat, in vivo
# [4] = test system: V.cholerae, S.flexneri, and Y.enterocolitica
# [5] = test system: bacteria; assay: Effect of cations (iron, copper) in culture medium on antibacterial activity; type: cell-based; details: iron added to culture medium
# Description: Oxygen tension effects were determined by agar diffusion in aerobic, microaerophilic (Candle jar), and anaerobic (GasPak) conditions. […] Other amounts and ratios were tested. Culture condition effects, such as pH or temperature were evaluated in broth mediums.
# Therefore, these antagonists could be used to neutralize BisBAL when necessary.
# [6] = test system: E. coli and Salmonella; details: lag time and 18 hour turbidity only marginally affected
# [7] = test system: Helicobacter pylori; type: cell-based
# [8] = test system: vancomycin-resistant enterococci (VRE); type: cell-based
# [9] = test system: methicillin-resistant S. aureus (MRSA); assay: Agar diffusion, zones of inhibition; type: cell-based, Staphylococcus aureus; details: MRSA (27 isolates); discs Bi(No3)3 157 μg, BAL 186 μg, BisBAL 157/31 μg; 24 h, 37° C.
compound,measurement,setting,value
"[H]/N=C(\N/C(=N/[H])NCCCCCCNC(=N)NC(=N)Nc1ccc(Cl)cc1)Nc1ccc(Cl)cc1 [CHX, chlorhexidine]",Effect on CPS expression,[1]; even at 0.75 of the MIC,no significant effect
"O=C(O)[C@@H](S)[C@@H](S)C(=O)O [DMSA, dimercapto-succinic acid]",Effect of thiol-containing chelator on antibacterial properties of bismuth,[2],do not increase its antibacterial properties
O=C([O-])c1ccccc1[O-].[Bi+3].[OH-] [BSS],Effect on gut flora,[3],does not have a significant growth-inhibiting effect
N[C@@H](CS)C(=O)O [cysteine],Effect of thiol-containing chelator on antibacterial properties of bismuth,[2],do not increase its antibacterial properties
bismuth nitrate [Bi(NO3)3],Bi^3+ concentration bacteria could withstand,[4],up to 50 μM
same,Reversal of antibacterial effects by iron,[5],can be reversed by addition of micromolar amounts of iron
same,Concentration at which capsule and slime expression is inhibited,[1]; subinhibitory levels,greater than 500 μM
same,Bi^3+ concentration in whose presence bacteria grew well,[6],250 to 500 µM
same,Zone diameter of inhibition,[7],little or no zones of inhibition
same,Zones of Inhibition,[8],7.3 ± 1.4 mm
same,Zones of Inhibition,[9],7.3 ± 2.8 mm
"O=S(=O)(O)CC(S)CS (stereo not drawn) [DMPS, 2,3-dimercaptopropane-1-sulfonic acid]",Effect of thiol-containing chelator on antibacterial properties of bismuth,[2],do not increase its antibacterial properties
